Broadly, the IC50 is the midpoint of a concentration-inhibition curve.

The target of one assay is T1, PTP1Bc (Homo sapiens, UniProt P18031).
T1 sequence (P18031 1-298 limits assumed): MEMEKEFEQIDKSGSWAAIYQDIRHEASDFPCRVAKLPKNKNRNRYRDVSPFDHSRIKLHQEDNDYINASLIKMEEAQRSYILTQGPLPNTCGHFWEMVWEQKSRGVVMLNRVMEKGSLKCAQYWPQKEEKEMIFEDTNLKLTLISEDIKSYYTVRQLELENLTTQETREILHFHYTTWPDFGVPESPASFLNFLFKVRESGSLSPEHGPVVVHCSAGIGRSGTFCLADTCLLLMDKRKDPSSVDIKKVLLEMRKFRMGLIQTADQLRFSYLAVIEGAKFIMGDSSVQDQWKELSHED
As to the kind of experiment: Enzyme inhibition assay against protein-tyrosine phosphatase PTP1Bc (pNPP hydrolysis). To be noted: recombinant His-tagged enzyme, 20 ng per well, pNPP 2 mM, pH 6.0, room temperature, 15 min preincubation, triplicate; NA = no activity; read-out: inhibitory activity against protein-tyrosine phosphatase PTP1Bc, IC50 (converted). It is filed as biochemical. The procedure:
(§1) The enzymatic assay was carried out at room temperature in 96-well plates. After the assay buffer which contained 100 mM Hepes (pH 6.0), 5 mM DTT 0.015 % Brij-35 and PTPase (20 ng PTP1B, 10 ng MEG2per well) was incubated with tested compounds for 15 min, the reaction was initiated by addition of the substrate p-nitrophenol phosphate (pNPP, Sigma, P4744, St. Louis, USA) at a final concentration of 2 mM. The activity of PTPase-catalyzed hydrolysis of pNPP was determined by measuring the amount of p-nitrophenol and the absorbance at 405 nm was recorded as the amount of p-nitrophenol. The IC50 value was determined by the non-linear curve fitting of the percentage inhibition versus inhibitor concentration plot. […] Louis, USA) was used for the positive control. All the assays were carried out in triplicate and the average results were presented.

The target of the next assay is T2, MEG2 (Homo sapiens, UniProt P43378).
T2 construct: 6xHis (N); made in house; host or cells: E. coli
T2 sequence (P43378 1-593): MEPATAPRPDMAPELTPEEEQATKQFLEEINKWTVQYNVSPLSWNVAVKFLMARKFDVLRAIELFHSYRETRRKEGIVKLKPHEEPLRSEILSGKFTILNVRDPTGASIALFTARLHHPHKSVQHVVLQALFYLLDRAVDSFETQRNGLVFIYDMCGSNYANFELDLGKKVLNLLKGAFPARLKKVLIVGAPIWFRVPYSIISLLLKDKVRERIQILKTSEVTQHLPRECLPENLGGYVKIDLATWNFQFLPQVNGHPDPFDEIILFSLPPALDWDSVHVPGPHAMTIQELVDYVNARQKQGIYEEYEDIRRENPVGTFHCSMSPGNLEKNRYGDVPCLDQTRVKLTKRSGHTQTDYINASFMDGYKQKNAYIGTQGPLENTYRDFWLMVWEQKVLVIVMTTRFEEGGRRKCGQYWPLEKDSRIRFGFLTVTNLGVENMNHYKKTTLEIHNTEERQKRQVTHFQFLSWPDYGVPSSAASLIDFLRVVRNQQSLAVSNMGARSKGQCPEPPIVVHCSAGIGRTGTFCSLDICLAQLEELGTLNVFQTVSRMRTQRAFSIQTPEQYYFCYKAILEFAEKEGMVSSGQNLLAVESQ
Put plainly: Enzyme inhibition assay against protein-tyrosine phosphatase MEG2 (pNPP hydrolysis). The format is biochemical. To be noted: recombinant His-tagged enzyme, 10 ng per well, pNPP 2 mM, pH 6.0, room temperature, 15 min preincubation, triplicate; NA = no activity; read-out: inhibitory activity against protein-tyrosine phosphatase MEG2, IC50 (converted). The procedure:
as §1

`CC1=CC(O)C(C)(O)C(C)CCC2(C)OC2CC1` (stereo not shown) [Compound 1, 6,7-epoxy-10E-humulen-1,2-diol]: the IC50 at PTP1Bc is 39.3 µM; on MEG2 it was 31.5 µM.

Take `C[C@H]1[C@H](C)CC[C@]2(C(=O)O)CC[C@]3(C)C(=CC[C@@H]4[C@@]5(C)CC[C@H](O)C(C)(C)[C@@H]5CC[C@]43C)[C@H]12` [Ursolic acid, reference compound]: the IC50 on MEG2 was 1.75 µM.

Turning to `CC1(C)C=CC(O)C2(C)OC2CCC2(C)OC2C1` (stereo not drawn) [Compound 3, 6,7:10,11-diepoxy-3E-humulen-5β-ol], the IC50 at PTP1Bc is 59.8 µM.

Source of the values: publication PMC4111878, “Three New Humulane Sesquiterpenes from Cultures of the Fungus Antrodiella albocinnamomea” (Natural Products and Bioprospecting, 2014).
